Drawing on US11472803B2, “7-substituted 1-aryl-naphthyridine-3-carboxylic acid amides and use thereof” (Bayer Aktiengesellschaft, priority 2016, dated 2022), this text covers EC50, Emax and Efficiency for ten molecules.

This assay deals with T1, human M2 receptor (Homo sapiens, UniProt P08172).
T1 construct: expressed in transfected cells; host or cells: CHO-DUKX (CHO-DUKX-M2-GIRK)
T1 sequence (P08172 1-466): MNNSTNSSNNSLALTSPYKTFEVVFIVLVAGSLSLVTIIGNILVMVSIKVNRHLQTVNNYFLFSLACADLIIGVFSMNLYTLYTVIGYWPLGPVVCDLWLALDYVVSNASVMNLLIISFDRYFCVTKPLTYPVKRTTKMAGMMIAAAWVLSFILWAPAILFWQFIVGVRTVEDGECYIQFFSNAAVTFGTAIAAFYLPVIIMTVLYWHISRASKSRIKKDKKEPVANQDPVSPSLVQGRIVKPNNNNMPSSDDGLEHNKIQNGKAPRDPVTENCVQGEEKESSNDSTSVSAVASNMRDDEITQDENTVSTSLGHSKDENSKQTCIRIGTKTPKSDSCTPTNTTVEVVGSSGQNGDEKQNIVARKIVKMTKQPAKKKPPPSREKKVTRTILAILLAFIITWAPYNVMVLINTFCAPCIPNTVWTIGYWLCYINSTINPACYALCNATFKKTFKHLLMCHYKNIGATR
The assay is described as follows: Functional M2-GIRK1/4 activation test: allosteric potency (EC50) and efficiency at EC20 acetylcholine. It counts as cell-based. The settings on record: CHO-DUKX-M2-GIRK cells; for pEC50: voltage-sensitive dye, acetylcholine at EC20, in some cases mean of two or more determinations. The procedure, abridged:
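CHO-DUKX cells stably expressing human M2 and GIRK1/4; membrane potential tracked with voltage-sensitive dye at room temperature. Compound added 50 s before acetylcholine at its EC20, then hyperpolarization read 60 s. EC50 (allosteric potency) and efficiency (boost of EC20 ACh effect) from 4-parameter Hill fit.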

Setting [1] is: boosting of the acetylcholine effect at EC20 acetylcholine concentration.

Structures are written as SMILES. pEC50: −log10 of the molar value. Where a name gives a salt, the structure may show the parent alone.

For `O=C(N[C@@H](C1CC1)C(F)(F)F)c1cn(-c2c(F)cc(F)cc2Cl)c2nc(N3CC4(COC4)C3)c(F)cc2c1=O` [Example 68, 1-(2-Chloro-4,6-difluorophenyl)-N-[(1S)-1-cyclopropyl-2,2,2-trifluoroethyl]-6-fluoro-7-(2-oxa-6-azaspiro[3.3]hept-6-yl)-4-oxo-1,4-dihydro-1,8-naphthyridine-3-carboxamide trifluoroacetate], the pEC50 was 7.49. Under setting [1], this molecule gave an Emax of 92%.

For `O=C(NC(C(F)(F)F)C(F)(F)F)c1cn(-c2ncc(F)cc2F)c2nc(N3CCC[C@@H]3CO)c(F)cc2c1=O` [Example 197, 1-(3,5-Difluoropyridin-2-yl)-6-fluoro-N-(1,1,1,3,3,3-hexafluoropropan-2-yl)-7-[(2R)-2-(hydroxymethyl)pyrrolidin-1-yl]-4-oxo-1,4-dihydro-1,8-naphthyridine-3-carboxamide], the pEC50 is 7.29. The same molecule returned an Emax under setting [1] of 100%.

Take `CC(C)(NC(=O)c1cn(-c2c(F)cc(F)cc2F)c2nc(N3CCOCC3)c(F)cc2c1=O)C(F)(F)F` [Example 149, 6-Fluoro-7-(morpholin-4-yl)-4-oxo-N-(1,1,1-trifluoro-2-methylpropan-2-yl)-1-(2,4,6-trifluorophenyl)-1,4-dihydro-1,8-naphthyridine-3-carboxamide]: the pEC50 is 7.68. In addition, the Emax under setting [1] worked out at 92%.

`CC(C)C(NC(=O)c1cn(-c2c(F)cc(F)cc2F)c2nc(N3CC[C@H](O)C3)c(F)cc2c1=O)C(F)(F)F` (single isomer, unassigned) [Example 139] gave a pEC50 of 8.47. Further, the Emax under setting [1] worked out at 100%.

`CN(C)c1nc2c(cc1F)c(=O)c(C(=O)NC(C)(C)CC(F)(F)F)cn2-c1c(F)cc(F)cc1F` [Example 63, 7-(Dimethylamino)-6-fluoro-4-oxo-N-(4,4,4-trifluoro-2-methylbutan-2-yl)-1-(2,4,6-trifluoro-phenyl)-1,4-dihydro-1,8-naphthyridine-3-carboxamide] gave a pEC50 of 8.41. The molecule also showed an Emax under setting [1] of 92%.

Regarding `O=C(N[C@@H](C1CC1)C(F)(F)F)c1cn(-c2c(F)cc(F)cc2F)c2nc(N3CCOCC3)c(F)cc2c1=O` [Example 147, N-[(1S)-Cyclopropyl-2,2,2-trifluoroethyl]-6-fluoro-7-(morpholin-4-yl)-4-oxo-1-(2,4,6-trifluorophenyl)-1,4-dihydro-1,8-naphthyridine-3-carboxamide], the pEC50 was 7.80. Under setting [1], this molecule had an Emax of 94%.

`CC(C)(NC(=O)c1cn(-c2c(F)cc(F)cc2Cl)c2nc(N3C[C@@H](O)[C@H](O)C3)c(F)cc2c1=O)C(F)(F)F` (single isomer, unassigned) [Example 49] showed a negative logarithm of the EC50 (pEC50) of 7.17. For the same molecule, under setting [1], the Emax is 74%.

Molecule `CC(C)(C)C(NC(=O)c1cn(-c2c(F)cc(F)cc2F)c2nc(N3CC4(COC4)C3)c(F)cc2c1=O)C(F)(F)C(F)(F)F` (single isomer, unassigned) [Example 213, 6-Fluoro-7-(2-oxa-6-azaspiro[3.3]hept-6-yl)-4-oxo-N-[1,1,1,2,2-pentafluoro-4,4-dimethylpentan-3-yl]-1-(2,4,6-trifluorophenyl)-1,4-dihydro-1,8-naphthyridine-3-carboxamide] showed a pEC50 of 7.89. The Emax under setting [1] worked out at 100%.

Molecule `O=C(NC(C1CC1)C(F)(F)C(F)(F)F)c1cn(-c2c(F)cc(F)cc2F)c2nc(N3CC4(COC4)C3)c(F)cc2c1=O` (single isomer, unassigned) [Example 206, N-[1-cyclopropyl-2,2,3,3,3-pentafluoropropyl]-6-fluoro-7-(2-oxa-6-azaspiro[3.3]hept-6-yl)-4-oxo-1-(2,4,6-trifluorophenyl)-1,4-dihydro-1,8-naphthyridine-3-carboxamide] showed a pEC50 of 8.00. The molecule also showed an Efficiency under setting [1] of 100%.

`CCC(COC(F)(F)F)NC(=O)c1cn(-c2c(F)cc(F)cc2F)c2nc(N3C[C@@H](O)[C@@H](O)C3)c(F)cc2c1=O` (single isomer, unassigned) [Example 96] gave a negative-log EC50 (pEC50) of 7.80. The maximum response (Emax) under setting [1] was 96%.

One may read the pEC50 as the negative decadic logarithm of the EC50, by convention in mol/L. Broadly, the Emax is the size of the effect at its maximum, as opposed to the concentration needed.
